≈ marks a conversion by molar mass, not a printed value. Positions of bridges follow the written chain, without caps; N, C: chain ends. Non-standard residues stand in square brackets, D forms with d. Residues, ends and D or L forms follow the SMILES beside them. S5 = C=CCCC[C@](C)(N)C(=O)O; Orn = NCCC[C@H](N)C(=O)O; Dab = NCC[C@H](N)C(=O)O; Dap = NC[C@H](N)C(=O)O
How the values were obtained:
[1] = system: K. pneumoniae; format: cell-based, Klebsiella pneumoniae
Summary of the method: (§1)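 Visible-growth endpoint after 20-24 h at 37 °C defines the MIC. Test organisms, pre-grown to log phase, were exposed at 5×10^5 CFU/ml to peptide dilution series in standard or cation-adjusted Mueller-Hinton broth.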

[2] = system: A. baumannii; format: cell-based, Acinetobacter baumannii
Summary of the method: as §1

[3] = system: P. aeruginosa; format: cell-based, Pseudomonas aeruginosa
Summary of the method: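 MIC taken as lowest peptide concentration with no visible growth after 20-24 h at 37 °C. Peptide serial dilutions from water stocks met P. aeruginosa inoculum (5×10^5 CFU/ml final) in MHB or MHB II, per a CLSI-adapted microbroth protocol.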

[4] = system: E. coli; format: cell-based, Escherichia coli
Summary of the method: as §1

[5] = system: S. aureus; format: cell-based, Staphylococcus aureus
Summary of the method: as §1

[6] = in vitro; format: cell-based; details: human, Inhibitory Concentration at 50% Cytotoxicity (IC50) Human Liver Cells (HepG2)
Summary of the method: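 Cytotoxicity read by CellTiter-Glo luminescence after 48 h at 37 °C exposure to serially diluted StAMPs or vehicle. HepG2 cells were grown in EMEM plus 10% FBS and given 4 h to attach before dosing; peptides came from a 5 mg/mL aqueous stock.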

[7] = in vitro; format: cell-based; details: human
Summary of the method: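 LDH release (absorbance at 490 nm) measured in the media of cells treated with serially diluted StAMPs or vehicle at 37 °C: 90 min for renal RPTEC, 48 h for liver HepG2. Cells were seeded overnight beforehand and media refreshed before dosing.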

CC(C)[C@@H]1NC(=O)[C@H](C(C)C)NC(=O)[C@@](C)(NC(=O)[C@H](C)NC(=O)[C@H](CCCCN)NC(=O)CNC(=O)[C@H](Cc2ccccc2)NC(=O)[C@H](CCCCN)NC(=O)[C@H](CCCCN)NC(=O)[C@H](CCCCN)NC(=O)[C@H](CO)NC(=O)[C@H](CCCCN)NC(=O)[C@]2(C)CCCC=CCCC[C@](C)(NC(=O)CN)C(=O)NCC(=O)N[C@@H](CCCCN)C(=O)N[C@@H](Cc3ccccc3)C(=O)N2)CCCC=CCCC[C@@](C)(C(=O)N[C@@H](C)C(=O)N[C@@H](CCCCN)C(=O)N[C@@H](CCCCN)C(N)=O)NC(=O)[C@H](CCC(=O)O)NC1=O [compound 19] (H-G[S5]GKF[S5]KSKKKFGKA[S5]VVE[S5]AKK-NH2; staple 2-6, 16-20)
Minimum Inhibitory Concentration (MIC) K. pneumoniae [1]: 4 µg/mL | Minimum Inhibitory Concentration (MIC) A. baumannii [2]: 2 µg/mL | Minimum Inhibitory Concentration (MIC) P. aeruginosa [3]: 4 µg/mL | Minimum Inhibitory Concentration (MIC) E. coli [4]: 2 µg/mL | Minimum Inhibitory Concentration (MIC) S. aureus [5]: >64 µg/mL | IC50 at 48 hours [6]: 95 µg/mL (≈ 37 µM) | IC50 at 90 min [7]: 92 µg/mL (≈ 35.9 µM)

CC(C)[C@@H]1NC(=O)[C@@](C)(NC(=O)[C@H](C)NC(=O)[C@H](CCCCN)NC(=O)CNC(=O)[C@H](Cc2ccccc2)NC(=O)[C@H](CCCCN)NC(=O)[C@H](CCCCN)NC(=O)[C@H](CCCCN)NC(=O)[C@H](CO)NC(=O)[C@H](CCCCN)NC(=O)[C@]2(C)CCCC=CCCC[C@](C)(NC(=O)CN)C(=O)NCC(=O)N[C@@H](CCCCN)C(=O)N[C@@H](Cc3ccccc3)C(=O)N2)CCCC=CCCC[C@@](C)(C(=O)N[C@@H](C)C(=O)N[C@@H](CCCCN)C(=O)N[C@@H](CCCCN)C(N)=O)NC(=O)[C@H](CCC(=O)O)NC(=O)[C@H](Cc2ccccc2)NC1=O [compound 20] (H-G[S5]GKF[S5]KSKKKFGKA[S5]VFE[S5]AKK-NH2; staple 2-6, 16-20)
Minimum Inhibitory Concentration (MIC) K. pneumoniae [1]: 2 µg/mL | Minimum Inhibitory Concentration (MIC) A. baumannii [2]: 2 µg/mL | Minimum Inhibitory Concentration (MIC) P. aeruginosa [3]: 2 µg/mL | Minimum Inhibitory Concentration (MIC) E. coli [4]: 2 µg/mL | Minimum Inhibitory Concentration (MIC) S. aureus [5]: 64 µg/mL | IC50 at 48 hours [6]: 105 µg/mL (≈ 40.2 µM) | IC50 at 90 min [7]: 70 µg/mL (≈ 26.8 µM)

CC(C)[C@@H]1NC(=O)[C@H](C(C)C)NC(=O)[C@@](C)(NC(=O)[C@H](C)NC(=O)[C@H](CCCCN)NC(=O)CNC(=O)[C@H](Cc2ccccc2)NC(=O)[C@H](CCCCN)NC(=O)[C@H](CCCCN)NC(=O)[C@H](CCCCN)NC(=O)[C@H](CCCCN)NC(=O)[C@H](Cc2c[nH]cn2)NC(=O)[C@]2(C)CCCC=CCCC[C@](C)(NC(=O)CN)C(=O)NCC(=O)N[C@@H](CCCCN)C(=O)N[C@@H](Cc3ccccc3)C(=O)N2)CCCC=CCCC[C@@](C)(C(=O)N[C@@H](C)C(=O)N[C@@H](CCCCN)C(=O)N[C@@H](CCCCN)C(N)=O)NC(=O)[C@H](CCC(=O)O)NC1=O [compound 21] (H-G[S5]GKF[S5]HKKKKFGKA[S5]VVE[S5]AKK-NH2; staple 2-6, 16-20)
Minimum Inhibitory Concentration (MIC) K. pneumoniae [1]: 4 µg/mL | Minimum Inhibitory Concentration (MIC) A. baumannii [2]: 2 µg/mL | Minimum Inhibitory Concentration (MIC) P. aeruginosa [3]: 4 µg/mL | Minimum Inhibitory Concentration (MIC) E. coli [4]: 2 µg/mL | Minimum Inhibitory Concentration (MIC) S. aureus [5]: >64 µg/mL | IC50 at 48 hours [6]: 208 µg/mL (≈ 79.5 µM) | IC50 at 90 min [7]: 251 µg/mL (≈ 96 µM)

CC(C)[C@@H]1NC(=O)[C@@](C)(NC(=O)[C@H](C)NC(=O)[C@H](CCCCN)NC(=O)CNC(=O)[C@H](Cc2ccccc2)NC(=O)[C@H](CCCCN)NC(=O)[C@H](CCCCN)NC(=O)[C@H](CCCCN)NC(=O)[C@H](CCCCN)NC(=O)[C@H](Cc2c[nH]cn2)NC(=O)[C@]2(C)CCCC=CCCC[C@](C)(NC(=O)CN)C(=O)NCC(=O)N[C@@H](CCCCN)C(=O)N[C@@H](Cc3ccccc3)C(=O)N2)CCCC=CCCC[C@@](C)(C(=O)N[C@@H](C)C(=O)N[C@@H](CCCCN)C(=O)N[C@@H](CCCCN)C(N)=O)NC(=O)[C@H](CCC(=O)O)NC(=O)[C@H](Cc2ccccc2)NC1=O [compound 22] (H-G[S5]GKF[S5]HKKKKFGKA[S5]VFE[S5]AKK-NH2; staple 2-6, 16-20)
Minimum Inhibitory Concentration (MIC) K. pneumoniae [1]: 4 µg/mL | Minimum Inhibitory Concentration (MIC) A. baumannii [2]: 3 µg/mL | Minimum Inhibitory Concentration (MIC) P. aeruginosa [3]: 4 µg/mL | Minimum Inhibitory Concentration (MIC) E. coli [4]: 2 µg/mL | Minimum Inhibitory Concentration (MIC) S. aureus [5]: >64 µg/mL | IC50 at 48 hours [6]: > 200 µg/mL | IC50 at 90 min [7]: 202 µg/mL (≈ 75.8 µM)

CC(C)[C@@H]1NC(=O)[C@@](C)(NC(=O)[C@H](C)NC(=O)[C@H](CCN)NC(=O)CNC(=O)[C@H](Cc2ccccc2)NC(=O)[C@H](CCN)NC(=O)[C@H](CCN)NC(=O)[C@H](CCN)NC(=O)[C@H](CCN)NC(=O)[C@H](CCN)NC(=O)[C@]2(C)CCCC=CCCC[C@](C)(NC(=O)CN)C(=O)NCC(=O)N[C@@H](CCN)C(=O)N[C@@H](Cc3ccccc3)C(=O)N2)CCCC=CCCC[C@@](C)(C(=O)N[C@@H](C)C(=O)N[C@@H](CCN)C(=O)N[C@@H](CCN)C(N)=O)NC(=O)[C@H](CCC(=O)O)NC(=O)CNC1=O [compound 23] (H-G[S5]G[Dab]F[S5][Dab][Dab][Dab][Dab][Dab]FG[Dab]A[S5]VGE[S5]A[Dab][Dab]-NH2; staple 2-6, 16-20)
Minimum Inhibitory Concentration (MIC) K. pneumoniae [1]: 32 µg/mL | Minimum Inhibitory Concentration (MIC) A. baumannii [2]: 8 µg/mL | Minimum Inhibitory Concentration (MIC) P. aeruginosa [3]: 2 µg/mL | Minimum Inhibitory Concentration (MIC) E. coli [4]: 8 µg/mL | Minimum Inhibitory Concentration (MIC) S. aureus [5]: 64 µg/mL | IC50 at 48 hours [6]: 39 µg/mL (≈ 16.9 µM) | IC50 at 90 min [7]: 84 µg/mL (≈ 36.3 µM)

CC(C)[C@@H]1NC(=O)[C@@](C)(NC(=O)[C@H](C)NC(=O)[C@H](CCCN)NC(=O)CNC(=O)[C@H](Cc2ccccc2)NC(=O)[C@H](CCCN)NC(=O)[C@H](CCCN)NC(=O)[C@H](CCCN)NC(=O)[C@H](CCCN)NC(=O)[C@H](CCCN)NC(=O)[C@]2(C)CCCC=CCCC[C@](C)(NC(=O)CN)C(=O)NCC(=O)N[C@@H](CCCN)C(=O)N[C@@H](Cc3ccccc3)C(=O)N2)CCCC=CCCC[C@@](C)(C(=O)N[C@@H](C)C(=O)N[C@@H](CCCN)C(=O)N[C@@H](CCCN)C(N)=O)NC(=O)[C@H](CCC(=O)O)NC(=O)CNC1=O [compound 24] (H-G[S5]G[Orn]F[S5][Orn][Orn][Orn][Orn][Orn]FG[Orn]A[S5]VGE[S5]A[Orn][Orn]-NH2; staple 2-6, 16-20)
Minimum Inhibitory Concentration (MIC) K. pneumoniae [1]: 32 µg/mL | Minimum Inhibitory Concentration (MIC) A. baumannii [2]: 2 µg/mL | Minimum Inhibitory Concentration (MIC) P. aeruginosa [3]: 2 µg/mL | Minimum Inhibitory Concentration (MIC) E. coli [4]: 4 µg/mL | Minimum Inhibitory Concentration (MIC) S. aureus [5]: 64 µg/mL | IC50 at 48 hours [6]: 44 µg/mL (≈ 18 µM) | IC50 at 90 min [7]: 100 µg/mL (≈ 41 µM)

CC(C)[C@@H]1NC(=O)[C@@](C)(NC(=O)[C@H](C)NC(=O)[C@H](CN)NC(=O)CNC(=O)[C@H](Cc2ccccc2)NC(=O)[C@H](CN)NC(=O)[C@H](CN)NC(=O)[C@H](CN)NC(=O)[C@H](CN)NC(=O)[C@H](CN)NC(=O)[C@]2(C)CCCC=CCCC[C@](C)(NC(=O)CN)C(=O)NCC(=O)N[C@@H](CN)C(=O)N[C@@H](Cc3ccccc3)C(=O)N2)CCCC=CCCC[C@@](C)(C(=O)N[C@@H](C)C(=O)N[C@@H](CN)C(=O)N[C@@H](CN)C(N)=O)NC(=O)[C@H](CCC(=O)O)NC(=O)CNC1=O [compound 25] (H-G[S5]G[Dap]F[S5][Dap][Dap][Dap][Dap][Dap]FG[Dap]A[S5]VGE[S5]A[Dap][Dap]-NH2; staple 2-6, 16-20)
Minimum Inhibitory Concentration (MIC) K. pneumoniae [1]: 16 µg/mL | Minimum Inhibitory Concentration (MIC) A. baumannii [2]: 32 µg/mL | Minimum Inhibitory Concentration (MIC) P. aeruginosa [3]: 4 µg/mL | Minimum Inhibitory Concentration (MIC) E. coli [4]: 4 µg/mL | Minimum Inhibitory Concentration (MIC) S. aureus [5]: >64 µg/mL | IC50 at 48 hours [6]: > 200 µg/mL | IC50 at 90 min [7]: > 800 µg/mL

CC(C)[C@@H]1NC(=O)[C@@](C)(NC(=O)[C@H](C)NC(=O)[C@H](CCCCN)NC(=O)CNC(=O)[C@H](Cc2ccccc2)NC(=O)[C@H](CCCCN)NC(=O)[C@H](CCCCN)NC(=O)[C@H](CCCCN)NC(=O)[C@H](CCCCN)NC(=O)[C@H](CCCCN)NC(=O)[C@]2(C)CCCC=CCCC[C@](C)(NC(=O)CN)C(=O)NCC(=O)N[C@@H](CCCCN)C(=O)N[C@@H](Cc3ccccc3)C(=O)N2)CCCC=CCCC[C@@](C)(C(=O)N[C@@H](C)C(=O)N[C@@H](CCCCN)C(=O)N[C@@H](CCCCN)C(=O)NCC(=O)NCC(=O)N[C@@H](CCC(=O)O)C(N)=O)NC(=O)[C@H](CCC(=O)O)NC(=O)CNC1=O [compound 26] (H-G[S5]GKF[S5]KKKKKFGKA[S5]VGE[S5]AKKGGE-NH2; staple 2-6, 16-20)
Minimum Inhibitory Concentration (MIC) K. pneumoniae [1]: 32 µg/mL | Minimum Inhibitory Concentration (MIC) A. baumannii [2]: 4 µg/mL | Minimum Inhibitory Concentration (MIC) P. aeruginosa [3]: 4 µg/mL | Minimum Inhibitory Concentration (MIC) E. coli [4]: 4 µg/mL | Minimum Inhibitory Concentration (MIC) S. aureus [5]: >64 µg/mL | IC50 at 48 hours [6]: 354 µg/mL (≈ 126 µM) | IC50 at 90 min [7]: 366 µg/mL (≈ 130 µM)

— patent US20240174723A1, “STAPLED ANTIMICROBIAL PEPTIDES (STAMPS) AND USES THEREOF” (Lytica Therapeutics, Inc., priority 2021, published 2024)
